Data taken from US11259956B2, “Combination therapy intravaginal rings” (International Partnership For Microbicides, Inc., priority 2013, dated 2022).

Tests used:
[1] = Solubility of dapivirine in water; format: physicochemical
[2] = tested on: wild-type HIV-1 strains and HIV-1 strains harboring different resistance-inducing mutations; conditions: Das et al., J. Med Chem., 2004; cited from earlier work

**Q.** For Cc1cc(C)c(Nc2ccnc(Nc3ccc(C#N)cc3)n2)c(C)c1 [dapivirine, 4-[[4-[(2,4,6-trimethylphenyl)amino]-2-pyrimidinyl]amino]benzonitrile], which “Solubility in water” value [1] is on record?
**A.** The value was “virtually insoluble in water”.

**Q.** What about the solubility [1] of the same molecule?
**A.** The solubility was under 1 µg/mL.

**Q.** What about the “Activity against HIV-1 strains” value [2] of the same molecule?
**A.** The value was “potent activity”.
